Measurements: patent US20240041042A1, “1-(PYRIDYL)-5-AZINYLPYRAZOLE DERIVATIVES, AND THEIR USE FOR CONTROL OF UNDESIRED PLANT GROWTH” (Bayer Aktiengesellschaft, priority 2020, published 2024)
Read-outs that look alike come from different tables or passages of the source.

Key:
Assay type in all cases: in vivo
[1] = tested on: Alopecurus myosuroides (ALOMY); assay: Pre-emergence herbicidal action against ALOMY; conditions: scored visually after about 3 weeks, 100% = plants have died
Method in brief: (§1)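 Herbicide applied to soil before seedling emergence, at 600 l/ha spray volume with 0.5% additive and rates up to 320 g/ha. Evaluation: visual percentage effect, about 3 weeks later, greenhouse-grown pots compared with untreated ones.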

[2] = tested on: Echinochloa crus-galli (ECHCG); assay: Pre-emergence herbicidal action against ECHCG
Method in brief: as §1

[3] = tested on: Verconica persica (VERPE); assay: Post-emergence herbicidal action against VERPE
Method in brief: (§2)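 Greenhouse plants sprayed at the one-leaf stage, 2–3 weeks after sowing, with WP or EC formulations plus 0.5% additive at 600 l/ha water. Activity rated visually after about 3 weeks versus untreated controls (100% = dead, 0% = like control), at 320 g/ha or lower.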

[4] = tested on: Abutilon theophrasti (ABUTH); assay: Post-emergence herbicidal action against ABUTH; conditions: 320 g/ha, visual rating about 3 weeks after treatment vs untreated controls (100% = plants have died, 0% = like control plants)
Method in brief: as §2

Viola tricolor (VIOTR) [5] = assay: Pre-emergence herbicidal action against VIOTR
Method in brief: as §1

[6] = tested on: Amaranthus retroflexus (AMARE); assay: Pre-emergence herbicidal action against AMARE; conditions: visual scoring after about 3 weeks vs untreated controls
Method in brief: as §1

Zea mays (ZEAMX) = conditions: for Post-emergence action against ZEAMX in %: crop plant compatibility, effect vs untreated controls; for Post-emergence action against ZEAMX in % (crop plant compatibility): 20 g/ha, effect in comparison to untreated controls
Method in brief: (§3)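 Foliar application at the one-leaf stage: WP/EC formulation, 0.5% additive, 600 l/ha water. Greenhouse-grown in sandy loam. Endpoint is visual % injury relative to untreated controls at about 3 weeks.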

[7] = tested on: Triticum aestivum (TRZAS); conditions: crop plant compatibility, effect vs untreated controls
Method in brief: as §3

Oryza sativa (ORYSA) = conditions: crop plant compatibility
Method in brief: as §3

[8] = tested on: Verconica persica (VERPE); assay: Pre-emergence herbicidal action against VERPE
Method in brief: as §1

Avena fatua (AVEFA) [9] = assay: Pre-emergence herbicidal action against AVEFA; conditions: 320 g/ha, visual scoring after about 3 weeks vs untreated controls
Method in brief: as §1

[10] = tested on: Echinochloa crus-galli (ECHCG); assay: Post-emergence herbicidal action against ECHCG
Method in brief: as §2

[11] = tested on: Polygonum convolvulus (POLCO); assay: Pre-emergence herbicidal action against POLCO
Method in brief: as §1

[12] = tested on: Pharbitis purpurea (PHBPU); assay: Pre-emergence herbicidal action against PHBPU; conditions: dosage 320 g/ha
Method in brief: as §1

Avena fatua (AVEFA) [13] = assay: Post-emergence herbicidal action against AVEFA; conditions: visual rating about 3 weeks after treatment
Method in brief: as §2

[14] = tested on: Polygonum convolvulus (POLCO); assay: Post-emergence herbicidal action against POLCO
Method in brief: as §2

Setaria viridis (SETVI) [15] = assay: Pre-emergence herbicidal action against SETVI
Method in brief: as §1

Setaria viridis (SETVI) [16] = assay: Post-emergence herbicidal action against SETVI; conditions: dosage 320 g/ha
Method in brief: as §2

[17] = tested on: Amaranthus retroflexus (AMARE); assay: Post-emergence herbicidal action against AMARE
Method in brief: as §2

[18] = tested on: Pharbitis purpurea (PHBPU); assay: Post-emergence herbicidal action against PHBPU; conditions: dosage 320 g/ha
Method in brief: as §2

[19] = tested on: Alopecurus myosuroides (ALOMY); assay: Post-emergence herbicidal action against ALOMY; conditions: visual rating about 3 weeks after treatment vs untreated controls (100% = plants have died, 0% = like control plants)
Method in brief: as §2

Lolium rigidum (LOLRI) [20] = assay: Pre-emergence herbicidal action against LOLRI
Method in brief: as §1

[21] = tested on: Matricaria inodora (MATIN); assay: Pre-emergence herbicidal action against MATIN; conditions: dosage 320 g/ha
Method in brief: as §1

Viola tricolor (VIOTR) [22] = assay: Post-emergence herbicidal action against VIOTR
Method in brief: as §2

Lolium rigidum (LOLRI) [23] = assay: Post-emergence herbicidal action against LOLRI; conditions: dosage 320 g/ha
Method in brief: as §2

[24] = 80 g/ha, effect in comparison to untreated controls
[25] = 320 g/ha, effect in comparison to untreated controls
[26] = 320 g/ha, visual rating about 3 weeks after treatment
[27] = 20 g/ha, effect vs untreated controls

SMILES	Pre-emergence action against ECHCG in % ([2]; dosage 320 g/ha)	Post-emergence action against VERPE in % ([3]; 320 g/ha, VERPE)	Post-emergence action against ABUTH in % [4]	Pre-emergence action against VIOTR in % (Viola tricolor (VIOTR) [5]; 320 g/ha, Viola tricolor)	Pre-emergence action against VIOTR in % (Viola tricolor (VIOTR) [5]; dosage 80 g/ha)	Post-emergence action against ZEAMX in % (Zea mays (ZEAMX); 80 g/ha)	Post-emergence action against TRZAS in % ([7]; 80 g/ha)	Post-emergence action against ORYSA in % (Oryza sativa (ORYSA); [24])	Post-emergence action against ORYSA in % (Oryza sativa (ORYSA); [25])	Post-emergence action against ECHCG in % ([10]; dosage 320 g/ha)	Post-emergence action against POLCO in % ([14]; dosage 320 g/ha)	Post-emergence action against VERPE in % ([3]; dosage 80 g/ha)	Post-emergence action against SETVI in % (Setaria viridis (SETVI) [16])	Post-emergence action against AMARE in % [17, 26]	Post-emergence action against PHBPU in % [18]	Post-emergence action against ZEAMX in % (crop plant compatibility) (Zea mays (ZEAMX))	Post-emergence action against TRZAS in % ([7]; 20 g/ha)	Post-emergence action against ORYSA in % (Oryza sativa (ORYSA); [27])	Post-emergence action against VIOTR in % (Viola tricolor (VIOTR) [22]; 80 g/ha)	Post-emergence action against VIOTR in % (Viola tricolor (VIOTR) [22]; 320 g/ha)	also measured
O=C(O)COc1nn(-c2ncccc2C(F)(F)F)c(-c2cncc(F)c2)c1I [Example I-186]	80%	80%	80%	90%	80%	20%	10%	10%	20%	90%	80%										Pre-emergence action against ALOMY ([1]; 320 g/ha): 90%; Pre-emergence action against AMARE in % ([6]; 320 g/ha): 90%; Pre-emergence action against VERPE in % ([8]; dosage 80 g/ha): 90%; Pre-emergence action against VERPE in % ([8]; dosage 320 g/ha): 90%; Pre-emergence action against AVEFA in % (Avena fatua (AVEFA) [9]): 80%; Post-emergence action against ECHCG in % ([10]; dosage 80 g/ha): 80%; Pre-emergence action against POLCO in % ([11]; dosage 320 g/ha): 80%; Pre-emergence action against PHBPU in % [12]: 90%; Post-emergence action against AVEFA in % (Avena fatua (AVEFA) [13]; 320 g/ha): 80%; Pre-emergence action against SETVI in % (Setaria viridis (SETVI) [15]; dosage 320 g/ha): 80%
O=C(COc1nn(-c2ncccc2C(F)(F)F)c(-c2cncc(F)c2)c1Br)OCC1CCOC1 (racemic) [Example I-162]	80%	90%		100%	80%		10%	0%		80%		80%	80%	80%	90%						Pre-emergence action against AMARE in % ([6]; 320 g/ha): 90%; Pre-emergence action against VERPE in % ([8]; dosage 80 g/ha): 90%; Pre-emergence action against VERPE in % ([8]; dosage 320 g/ha): 90%; Pre-emergence action against POLCO in % ([11]; dosage 320 g/ha): 100%; Pre-emergence action against PHBPU in % [12]: 90%
CS(=O)(=O)NC(=O)COc1nn(-c2ncccc2F)c(-c2ccc(F)nc2)c1Br [Example I-44]	100%			100%	100%	10%						80%				0%	20%	20%			Pre-emergence action against ALOMY ([1]; 80 g/ha): 100%; Pre-emergence action against ALOMY ([1]; 320 g/ha): 100%; Pre-emergence action against ECHCG in % ([2]; dosage 80 g/ha): 80%; Post-emergence action against ALOMY in % ([19]; 80 g/ha): 80%; Pre-emergence action against LOLRI in % (Lolium rigidum (LOLRI) [20]; dosage 80 g/ha): 80%; Pre-emergence action against LOLRI in % (Lolium rigidum (LOLRI) [20]; dosage 320 g/ha): 100%; Pre-emergence action against AMARE in % ([6]; 80 g/ha): 80%; Pre-emergence action against AMARE in % ([6]; 320 g/ha): 90%; Pre-emergence action against VERPE in % ([8]; dosage 320 g/ha): 80%; Pre-emergence action against AVEFA in % (Avena fatua (AVEFA) [9]): 90%; Pre-emergence action against MATIN in % [21]: 90%; Pre-emergence action against POLCO in % ([11]; dosage 80 g/ha): 90%; Pre-emergence action against POLCO in % ([11]; dosage 320 g/ha): 90%; Post-emergence action against AMARE in % ([17]; 80 g/ha, visual rating about 3 weeks after treatment vs untreated controls (100% = plants have died, 0% = like control plants)): 80%; Post-emergence action against AVEFA in % (Avena fatua (AVEFA) [13]; 80 g/ha): 90%; Post-emergence action against POLCO in % ([14]; dosage 80 g/ha): 90%; Pre-emergence action against SETVI in % (Setaria viridis (SETVI) [15]; dosage 80 g/ha): 90%; Pre-emergence action against SETVI in % (Setaria viridis (SETVI) [15]; dosage 320 g/ha): 100%
COC(=O)[C@@H](C)Oc1nn(-c2ncccc2F)c(-c2ccnc(F)c2)c1I [Example I-138]		80%	80%			20%		0%	20%	90%	80%		80%		80%	20%	10%	0%	80%	80%	Post-emergence action against LOLRI in % (Lolium rigidum (LOLRI) [23]): 90%
CCOC(=O)COc1nn(-c2ncccc2F)c(-c2ccnc(F)c2)c1I [Example I-137]		80%	80%			0%	20%	10%	20%	80%	80%			80%		0%	20%	0%	80%	80%	Post-emergence action against ALOMY in % ([19]; 320 g/ha): 80%; Post-emergence action against ZEAMX in % (Zea mays (ZEAMX); 320 g/ha): 20%; Post-emergence action against LOLRI in % (Lolium rigidum (LOLRI) [23]): 90%; Post-emergence action against POLCO in % ([14]; dosage 80 g/ha): 80%
Cc1ncccc1-n1nc(OCC(=O)O)c(Br)c1-c1cncc(F)c1 [II-38]		90%	80%			0%	10%	0%	0%	90%	90%	80%	90%	80%	80%	0%	0%	0%	90%	90%	Post-emergence action against ALOMY in % ([19]; 320 g/ha): 100%; Post-emergence action against ZEAMX in % (Zea mays (ZEAMX); 320 g/ha): 0%; Post-emergence action against AVEFA in % (Avena fatua (AVEFA) [13]; 320 g/ha): 90%
COCCOC(=O)COc1nn(-c2cccnc2C)c(-c2cncc(F)c2)c1Br [II-40]		90%	80%			0%	20%	0%	0%	90%	80%	80%	90%	80%	80%	0%	0%	0%	90%	90%	Post-emergence action against ALOMY in % ([19]; 320 g/ha): 90%; Post-emergence action against ZEAMX in % (Zea mays (ZEAMX); 320 g/ha): 10%; Post-emergence action against AVEFA in % (Avena fatua (AVEFA) [13]; 320 g/ha): 90%; Post-emergence action against POLCO in % ([14]; dosage 80 g/ha): 80%
